Source: ChEMBL document CHEMBL1201862, “PubChem BioAssay data set” (2004)
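Where inhibition never reached the appropriate level, the endpoint shown equals the highest concentration tested. Otherwise, values were interpolated linearly from a five-concentration, 48-hour dose response in 96-well plates. GI50 = concentration required for 50% inhibition of growth.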 The source made the active and inactive calls. No stated cut-off is given here; in the data, active = GI50 up to about 1.1 µM and inactive = higher.

How the values were obtained:
Test in all cases: DTP human tumour cell line panel, 48 h
Hs-578T = tested on: Hs-578T
SR = tested on: SR
SNB-19 = tested on: SNB-19
NCI-H23 = tested on: NCI-H23
EKVX = tested on: EKVX
MOLT-4 = tested on: MOLT-4
IGROV-1 = tested on: IGROV-1
ACHN = tested on: ACHN
MDA-MB-435 = tested on: MDA-MB-435
SF-295 = tested on: SF-295
NCI-H460 = tested on: NCI-H460
CCRF-CEM = tested on: CCRF-CEM
BT-549 = tested on: BT-549
SF-539 = tested on: SF-539
SK-MEL-28 = tested on: SK-MEL-28
K562 = tested on: K562
COLO 205 = tested on: COLO 205
RXF 393 = tested on: RXF 393
OVCAR-4 = tested on: OVCAR-4
M14 = tested on: M14
SNB-75 = tested on: SNB-75
HCC 2998 = tested on: HCC 2998
A498 = tested on: A498
HCT-116 = tested on: HCT-116
HOP-62 = tested on: HOP-62
UACC-62 = tested on: UACC-62
CAKI-1 = tested on: CAKI-1
SK-MEL-5 = tested on: SK-MEL-5
UO-31 = tested on: UO-31
PC-3 = tested on: PC-3
RPMI-8226 = tested on: RPMI-8226
TK-10 = tested on: TK-10
MCF7 = tested on: MCF7
DU-145 = tested on: DU-145
OVCAR-3 = tested on: OVCAR-3
SW-620 = tested on: SW-620
U-251 = tested on: U-251
SN12C = tested on: SN12C
HCT-15 = tested on: HCT-15
KM12 = tested on: KM12
HL-60 = tested on: HL-60
SK-OV-3 = tested on: SK-OV-3
OVCAR-5 = tested on: OVCAR-5
786-0 = tested on: 786-0
NCI-H522 = tested on: NCI-H522
HOP-92 = tested on: HOP-92
HT-29 = tested on: HT-29
UACC-257 = tested on: UACC-257
A549 = tested on: A549
OVCAR-8 = tested on: OVCAR-8
Malme-3M = tested on: Malme-3M
SF-268 = tested on: SF-268
SK-MEL-2 = tested on: SK-MEL-2
MDA-MB-231 = tested on: MDA-MB-231
LOX IMVI = tested on: LOX IMVI
NCI/ADR-RES = tested on: NCI/ADR-RES
NCI-H226 = tested on: NCI-H226
MDA-N = tested on: MDA-N
T47D = tested on: T47D

## c1ccc2c(c1)NC(C1OC3CCCN3C1C1Nc3ccccc3S1)S2 (stereo unspecified)
Hs-578T
  GI50: > 100 µM (inactive)
SR
  GI50: 22.3 µM (inactive)
SNB-19
  GI50: > 100 µM (inactive)
NCI-H23
  GI50: 29 µM (inactive)
EKVX
  GI50: > 100 µM (inactive)
MOLT-4
  GI50: 29.9 µM (inactive)
IGROV-1
  GI50: > 100 µM (inactive)
ACHN
  GI50: > 100 µM (inactive)
MDA-MB-435
  GI50: 75.2 µM (inactive)
SF-295
  GI50: 90.6 µM (inactive)
NCI-H460
  GI50: 41.2 µM (inactive)
CCRF-CEM
  GI50: 35.8 µM (inactive)
BT-549
  GI50: 78.2 µM (inactive)
SF-539
  GI50: > 100 µM (inactive)
SK-MEL-28
  GI50: > 100 µM (inactive)
K562
  GI50: 31 µM (inactive)
COLO 205
  GI50: 83.6 µM (inactive)
RXF 393
  GI50: 21.2 µM (inactive)
OVCAR-4
  GI50: 63.4 µM (inactive)
M14
  GI50: > 100 µM (inactive)
SNB-75
  GI50: 69.7 µM (inactive)
HCC 2998
  GI50: > 100 µM (inactive)
A498
  GI50: > 100 µM (inactive)
HCT-116
  GI50: 55.3 µM (inactive)
HOP-62
  GI50: 97.9 µM (inactive)
UACC-62
  GI50: 79.8 µM (inactive)
CAKI-1
  GI50: > 100 µM (inactive)
SK-MEL-5
  GI50: 39.6 µM (inactive)
UO-31
  GI50: 55.1 µM (inactive)
PC-3
  GI50: 44.1 µM (inactive)
RPMI-8226
  GI50: 23 µM (inactive)
TK-10
  GI50: > 100 µM (inactive)
MCF7
  GI50: 44.2 µM (inactive)
DU-145
  GI50: > 100 µM (inactive)
OVCAR-3
  GI50: 46.5 µM (inactive)
SW-620
  GI50: > 100 µM (inactive)
U-251
  GI50: 80.2 µM (inactive)
SN12C
  GI50: > 100 µM (inactive)
HCT-15
  GI50: 48.9 µM
KM12
  GI50: 46.5 µM (inactive)
HL-60
  GI50: 20.6 µM (inactive)
SK-OV-3
  GI50: > 100 µM (inactive)
OVCAR-5
  GI50: > 100 µM (inactive)
786-0
  GI50: > 100 µM (inactive)
NCI-H522
  GI50: 28.2 µM (inactive)
HOP-92
  GI50: > 100 µM (inactive)
HT-29
  GI50: 44.4 µM (inactive)
UACC-257
  GI50: 48.3 µM (inactive)
A549
  GI50: > 100 µM (inactive)
OVCAR-8
  GI50: 52.1 µM (inactive)
Malme-3M
  GI50: > 100 µM (inactive)
SF-268
  GI50: > 100 µM (inactive)

## CCN(CC)c1c(-c2c(N(CC)CC)c(OC(C)=O)c3sccn3c2=O)c(=O)n2ccsc2c1OC(C)=O
SK-MEL-2
  GI50: 93.8 µM (inactive)
Hs-578T
  GI50: 38.8 µM (inactive)
SNB-19
  GI50: 59.6 µM (inactive)
NCI-H23
  GI50: > 100 µM (inactive)
EKVX
  GI50: > 100 µM (inactive)
MOLT-4
  GI50: > 100 µM (inactive)
IGROV-1
  GI50: 68.1 µM (inactive)
MDA-MB-231
  GI50: 21.1 µM (inactive)
LOX IMVI
  GI50: > 100 µM (inactive)
ACHN
  GI50: > 100 µM (inactive)
MDA-MB-435
  GI50: > 100 µM (inactive)
SF-295
  GI50: 32 µM (inactive)
NCI-H460
  GI50: > 100 µM (inactive)
CCRF-CEM
  GI50: > 100 µM (inactive)
BT-549
  GI50: 32 µM (inactive)
SF-539
  GI50: 85.5 µM (inactive)
SK-MEL-28
  GI50: > 100 µM (inactive)
K562
  GI50: > 100 µM (inactive)
COLO 205
  GI50: > 100 µM (inactive)
OVCAR-4
  GI50: > 100 µM (inactive)
M14
  GI50: > 100 µM (inactive)
SNB-75
  GI50: 19.4 µM (inactive)
HCC 2998
  GI50: > 100 µM (inactive)
A498
  GI50: > 100 µM (inactive)
NCI/ADR-RES
  GI50: 49.5 µM (inactive)
HCT-116
  GI50: 71 µM (inactive)
HOP-62
  GI50: 21.3 µM (inactive)
UACC-62
  GI50: 81.7 µM (inactive)
CAKI-1
  GI50: > 100 µM (inactive)
SK-MEL-5
  GI50: > 100 µM (inactive)
UO-31
  GI50: 93.1 µM (inactive)
PC-3
  GI50: > 100 µM (inactive)
RPMI-8226
  GI50: > 100 µM (inactive)
TK-10
  GI50: 33.2 µM (inactive)
DU-145
  GI50: > 100 µM (inactive)
OVCAR-3
  GI50: > 100 µM (inactive)
SW-620
  GI50: > 100 µM (inactive)
U-251
  GI50: 37.5 µM (inactive)
SN12C
  GI50: > 100 µM (inactive)
HCT-15
  GI50: > 100 µM
KM12
  GI50: > 100 µM (inactive)
HL-60
  GI50: > 100 µM (inactive)
SK-OV-3
  GI50: 73.3 µM (inactive)
OVCAR-5
  GI50: > 100 µM (inactive)
786-0
  GI50: 22.5 µM (inactive)
NCI-H226
  GI50: 44.4 µM (inactive)
HOP-92
  GI50: > 100 µM (inactive)
HT-29
  GI50: > 100 µM (inactive)
UACC-257
  GI50: > 100 µM (inactive)
MDA-N
  GI50: > 100 µM (inactive)
OVCAR-8
  GI50: 33 µM (inactive)
Malme-3M
  GI50: > 100 µM (inactive)
SF-268
  GI50: 39.9 µM (inactive)

## CC1(C)C[C@@H]2C1CCC1(C)CC2(O)CC[C@H]1O (stereo partly specified)
SK-MEL-2
  GI50: > 100 µM (inactive)
Hs-578T
  GI50: > 100 µM (inactive)
SR
  GI50: > 100 µM (inactive)
SNB-19
  GI50: > 100 µM (inactive)
NCI-H23
  GI50: > 100 µM (inactive)
EKVX
  GI50: > 100 µM (inactive)
MOLT-4
  GI50: > 100 µM (inactive)
IGROV-1
  GI50: > 100 µM (inactive)
LOX IMVI
  GI50: > 100 µM (inactive)
ACHN
  GI50: > 100 µM (inactive)
MDA-MB-435
  GI50: > 100 µM (inactive)
SF-295
  GI50: > 100 µM (inactive)
NCI-H460
  GI50: > 100 µM (inactive)
CCRF-CEM
  GI50: > 100 µM (inactive)
BT-549
  GI50: > 100 µM (inactive)
SK-MEL-28
  GI50: > 100 µM (inactive)
K562
  GI50: > 100 µM (inactive)
COLO 205
  GI50: > 100 µM (inactive)
OVCAR-4
  GI50: > 100 µM (inactive)
M14
  GI50: > 100 µM (inactive)
SNB-75
  GI50: > 100 µM (inactive)
NCI/ADR-RES
  GI50: > 100 µM (inactive)
T47D
  GI50: > 100 µM (inactive)
HOP-62
  GI50: > 100 µM (inactive)
UACC-62
  GI50: > 100 µM (inactive)
CAKI-1
  GI50: > 100 µM (inactive)
SK-MEL-5
  GI50: > 100 µM (inactive)
UO-31
  GI50: > 100 µM (inactive)
PC-3
  GI50: > 100 µM (inactive)
RPMI-8226
  GI50: > 100 µM (inactive)
TK-10
  GI50: > 100 µM (inactive)
MCF7
  GI50: > 100 µM (inactive)
OVCAR-3
  GI50: > 100 µM (inactive)
SW-620
  GI50: > 100 µM (inactive)
U-251
  GI50: > 100 µM (inactive)
SN12C
  GI50: > 100 µM (inactive)
HCT-15
  GI50: > 100 µM
KM12
  GI50: > 100 µM (inactive)
HL-60
  GI50: > 100 µM (inactive)
SK-OV-3
  GI50: > 100 µM (inactive)
OVCAR-5
  GI50: > 100 µM (inactive)
786-0
  GI50: > 100 µM (inactive)
NCI-H226
  GI50: > 100 µM (inactive)
NCI-H522
  GI50: > 100 µM (inactive)
HOP-92
  GI50: > 100 µM (inactive)
HT-29
  GI50: > 100 µM (inactive)
UACC-257
  GI50: > 100 µM (inactive)
A549
  GI50: > 100 µM (inactive)
OVCAR-8
  GI50: > 100 µM (inactive)
Malme-3M
  GI50: > 100 µM (inactive)
SF-268
  GI50: > 100 µM (inactive)
